Assay results published in PubChem BioAssay AID2060621 (Molecular Pharmacology Branch, DTP, NCI, 2025).
Where “and” joins values, the source holds several entries; their conditions need not be identical. Identical values can stand only once.

Test system: 324938-238-R-J1-PDC complex spheroids viability
Experiment: Anticancer human tumor 324938-238-R-J1-PDC patient-derived bladder carcinoma cell line growth inhibition [CLK]
Details: for viability, T/C: stronger effect = lower value; active = viability on the fitted dose curve at most 10% of control; inactive = the rest
Procedure, shortened: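 Multi-cell-type spheroids combined patient-derived tumor cells with HUVEC endothelial cells and human mesenchymal stem cells. Paired agents were dosed in half-log steps down from about clinical Cmax, or from 10 microM where Cmax was unknown.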
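Note: viability read after seven days of drug exposure.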
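Throughout, for viability, T/C: 100% = DMSO vehicle control wells.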

COc1cccc2c1C(=O)c1c(O)c3c(c(O)c1C2=O)CC(O)(C(=O)CO)CC3OC1CC(N)C(O)C(C)O1 (centres undefined)
active: viability, T/C (compound 0.316 µM) 7.21% and 8.55% | viability, T/C (compound 1 µM) 1.1% and 0.74% | viability, T/C (compound 3.16 µM) 0.07% and 0.13% | viability, T/C (compound 10 µM) 0.18% and 0.15%
< 31.6 nM: IC50 (curve of compound)
inactive: viability, T/C (compound 0.0316 µM) 18.6% and 20.6% | viability, T/C (compound 0.1 µM) 12.3% and 18%

CC(CO)NC(=O)c1cc(-c2ccc(Cl)cc2)nn(-c2cnn(C)c2)c1=O (centres undefined) + CN1CCN(c2cc(C(=O)Nc3cc4cc(-c5cnn(C)c5)ccc4cn3)ccn2)CC1
active: viability, T/C (second compound 1 µM, first compound 0.0316 µM) 1.59% | viability, T/C (second compound 1 µM, first compound 0.1 µM) 1.8% | viability, T/C (second compound 1 µM, first compound 0.316 µM) 1.38% | viability, T/C (second compound 1 µM, first compound 1 µM) 1.23% | viability, T/C (second compound 1 µM, first compound 3.16 µM) 1.2% | viability, T/C (second compound 1 µM, first compound 10 µM) 1.04% | viability, T/C (second compound 3.16 µM, first compound 0.0316 µM) 0.16% | viability, T/C (second compound 3.16 µM, first compound 0.1 µM) 0.21% | viability, T/C (second compound 3.16 µM, first compound 0.316 µM) 0.21% | viability, T/C (second compound 3.16 µM, first compound 1 µM) 0.15% | viability, T/C (second compound 3.16 µM, first compound 3.16 µM) 0.25% | viability, T/C (second compound 3.16 µM, first compound 10 µM) 0.67% | viability, T/C (second compound 10 µM, first compound 0.0316 µM) 0.13% | viability, T/C (second compound 10 µM, first compound 0.1 µM) 0.19% | viability, T/C (second compound 10 µM, first compound 0.316 µM) 0.25% | viability, T/C (second compound 10 µM, first compound 1 µM) 0.2% | viability, T/C (second compound 10 µM, first compound 3.16 µM) 0.18% | viability, T/C (second compound 10 µM, first compound 10 µM) 0.22%
> 10000 nM: IC50 (curve of first compound, second compound 0.0316 µM)
4990 nM: IC50 (curve of first compound, second compound 0.1 µM)
< 31.6 nM: IC50 (curve of first compound, second compound 0.316 µM) | IC50 (curve of first compound, second compound 1 µM) | IC50 (curve of first compound, second compound 3.16 µM) | IC50 (curve of first compound, second compound 10 µM)
inactive: viability, T/C (second compound 0.0316 µM, first compound 0.0316 µM) 84.4% | viability, T/C (second compound 0.0316 µM, first compound 0.1 µM) 92.8% | viability, T/C (second compound 0.0316 µM, first compound 0.316 µM) 83.5% | viability, T/C (second compound 0.0316 µM, first compound 1 µM) 81% | viability, T/C (second compound 0.0316 µM, first compound 3.16 µM) 63.6% | viability, T/C (second compound 0.0316 µM, first compound 10 µM) 50.9% | viability, T/C (second compound 0.1 µM, first compound 0.0316 µM) 60.7% | viability, T/C (second compound 0.1 µM, first compound 0.1 µM) 62.8% | viability, T/C (second compound 0.1 µM, first compound 0.316 µM) 63.3% | viability, T/C (second compound 0.1 µM, first compound 1 µM) 55.7% | viability, T/C (second compound 0.1 µM, first compound 3.16 µM) 57.3% | viability, T/C (second compound 0.1 µM, first compound 10 µM) 41.3% | viability, T/C (second compound 0.316 µM, first compound 0.0316 µM) 23.5% | viability, T/C (second compound 0.316 µM, first compound 0.1 µM) 25.9% | viability, T/C (second compound 0.316 µM, first compound 0.316 µM) 25.3% | viability, T/C (second compound 0.316 µM, first compound 1 µM) 25.8% | viability, T/C (second compound 0.316 µM, first compound 3.16 µM) 26.5% | viability, T/C (second compound 0.316 µM, first compound 10 µM) 21.4%
